Test results taken from patent US10081632B2, “Substituted tetrahydropyrido[3′,2′:4,5]pyrrolo[1,2-α]pyrazine-2-carboxamides as RSK inhibitors” (Phoenix Molecular Designs, priority 2016, dated 2018).
“Also recorded” adds a separate entry of the source.

How the values were obtained:
[1] = Solubility assessment, 20 mg/ml solution; assay type: physicochemical; conditions: for Solubility, 20 mg/ml Solution: 100 mM in DMSO diluted in DMEM growth media to 20 mg/ml
Experimental: Solubility is an important property for therapeutic drug candidates. Poor solubility can lead to low bioavailability resulting in suboptimal drug delivery. It can also prevent the evaluation of test agents in animals because the concentration(s) needed to achieve the desired effect cannot be achieved to poor solubility. For solubility assessments, small molecules targeting RSK were compared. For these assessments, 100 mM solutions of the compounds dissolved in DMSO were diluted in DMEM growth media (Life Technologies) supplemented with fetal bovine serum (FBS, Life Technologies) and 100 units/ml penicillin and 100 units/ml streptomycin (Life Technologies) to make 20 mg/ml solutions. Once diluted, the solutions were vortexed and examined for the formation of precipitates. […] For Compound 26, a 100 mM solution of the compound dissolved in DMSO was diluted in phosphate buffered saline (Life Technologies) to make a 20 mg/ml solution. The stock of […] was chosen because this is the upper end of what would be required to dose mice for a range of studies including MTD, PK, PD and efficacy. The pH of this solution was determined to be 2, as previously described. […] At high concentrations some RSK inhibitors were highly soluble while others were not. Compound 0 is (R)—N-(1-benzyl-1H-pyrazol-4-yl)-9-methyl-6-oxo-6,7,8,9-tetrahydropyrido[3′,2′:4,5]pyrrolo[1,2-a]pyrazine-2-carboxamide. Compound 0 was not soluble, whereas Compounds 18, 20, 21, 25 and 26 were soluble under the same conditions (Table 5).

MDA-MB-231 cells [2] = experiment: Soft agar growth inhibition assay; assay type: cell-based; conditions: Homo sapiens, MDA-MB-231; growth in soft agar (SA); read-out: MDA-MB-231 IC50 (SA)
CD34+ cells = experiment: Colony forming unit hematopoietic stem cell assay; assay type: cell-based, human
Experimental: The hematopoietic colony forming cell assay was conducted based on a protocol outlined by StemCell Technologies. […] Following the addition of CD34^+ cells isolated from human cord blood or peripheral blood (StemCell Technologies) at a final concentration of 5×10^2 cells per dish, the tubes were vortexed and allowed to stand for 5 minutes at room temperature. Next, the MethoCult mixtures were dispensed into 35 mm dishes (Corning Incorporated) through blunt end needles (StemCell Technologies) and 5 ml syringes (BD Biosciences) at a volume of 1.1 ml per dish. The medium was evenly distributed across the surface of each dish by gentle tilting and rotation. The dishes were then placed in a 100 mm culture dish (Grenier Bio-One) containing additional 35 mm dishes with sterile water to maintain humidity. […] The number of myeloid and erythroid derived colonies in both the treated and control dishes were counted and compared.

RSK2 = RSK2 (Homo sapiens (Human), UniProt P51812); experiment: Radioisotope kinase assay (SignalChem), RSK2; assay type: biochemical; conditions: 33P-ATP, 30° C., 15 minutes
Experimental: The assay conditions for the RSK2 kinase target were optimized to yield acceptable enzymatic activity. In addition, the assays were optimized to give high signal-to-noise ratio.
Radioisotope assays (SignalChem) were performed for the evaluation of the kinase target profiling and all assays were performed in a designated radioactive working area. The kinase targets were RSK1, RSK2, RSK3, RSK4 and MK2.
The assay was initiated by the addition of ^33P-ATP and the reaction mixture incubated at 30° C. for 15 minutes. After the incubation period, the assay was terminated by spotting 10 μL of the reaction mixture onto Multiscreen phosphocellulose P81 plate. The Multiscreen phosphocellulose P81 plate was washed 3 times for approximately 15 minutes each in a 1% phosphoric acid solution. The radioactivity on the P81 plate was counted in the presence of scintillation fluid in a Trilux scintillation counter.
Blank controls were set up for each target kinase which included all the assay components except the addition of the appropriate substrate (which was replaced with equal volume of assay dilution buffer). The corrected activity for each target kinase was determined by removing the blank control value.

4T1 cells [3] = experiment: Monolayer growth inhibition, Alamar blue assay; assay type: cell-based; conditions: Mus musculus; 4T1 (TNBC), 5 days, single dose on day 1
Text: (§1) In all instances a single dose was given on day 1 of the experiment.

HCC1143 cells [4] = experiment: Monolayer growth inhibition, Alamar blue assay; assay type: cell-based; conditions: Homo sapiens; HCC1143 (TNBC), 5 days, single dose on day 1
Text: as §1

HCC1937 cells [5] = experiment: Monolayer growth inhibition, Alamar blue assay; assay type: cell-based; conditions: Homo sapiens; HCC1937 (TNBC, BRCA Mutant), 5 days, single dose on day 1
Text: as §1

JIMT-1 cells [6] = experiment: Monolayer growth inhibition, Alamar blue assay; assay type: cell-based; conditions: Homo sapiens; JIMT-1 (HER2), 5 days, single dose on day 1
Text: as §1

MDA-MB-231 cells [7] = experiment: Monolayer growth inhibition, Alamar blue assay; assay type: cell-based; conditions: Homo sapiens; MDA-MB-231 (TNBC), 5 days, single dose on day 1
Text: as §1

MDA-MB-435 cells [8] = experiment: Monolayer growth inhibition, Alamar blue assay; assay type: cell-based; conditions: Homo sapiens; MDA-MB-435 (Melanoma), 5 days, single dose on day 1
Text: as §1

MDA-MB-468 cells [9] = experiment: Monolayer growth inhibition, Alamar blue assay; assay type: cell-based; conditions: Homo sapiens; MDA-MB-468 (TNBC), 5 days, single dose on day 1
Text: as §1

PC3 cells [10] = experiment: Monolayer growth inhibition, Alamar blue assay; assay type: cell-based; conditions: Homo sapiens, PC-3; PC3 (Prostate), 5 days, single dose on day 1
Text: as §1

SUM149 cells [11] = experiment: Monolayer growth inhibition, Alamar blue assay; assay type: cell-based; conditions: Homo sapiens; SUM149 (TNBC, BRCA Mutant), 5 days, single dose on day 1
Text: as §1

SUM149-PTXR cells [12] = experiment: Monolayer growth inhibition, Alamar blue assay; assay type: cell-based, Human; conditions: Homo sapiens; SUM149-PTXR (TNBC, BRCA Mutant), 5 days, single dose on day 1
Text: as §1

T47D cells [13] = experiment: Monolayer growth inhibition, Alamar blue assay; assay type: cell-based, Human; conditions: Homo sapiens; T47D (ER/PR), 5 days, single dose on day 1
Text: as §1

HCC1937 cells [14] = experiment: Monolayer growth inhibition, crystal violet assay; assay type: cell-based; conditions: Homo sapiens; HCC1937 (TNBC, BRCA Mutant), 5 days, single dose on day 1
Text: (§2) In all instances a single dose was given on day 1 of the experiment. […] Complete (100%) growth suppression was achievable with several of the compounds in multiple different cell lines.

JIMT-1 cells [15] = experiment: Monolayer growth inhibition, crystal violet assay; assay type: cell-based; conditions: Homo sapiens; JIMT-1 (HER2), 5 days, single dose on day 1
Text: as §2

MDA-MB-468 cells [16] = experiment: Monolayer growth inhibition, crystal violet assay; assay type: cell-based; conditions: Homo sapiens; MDA-MB-468 (TNBC), 5 days, single dose on day 1
Text: as §2

T47D cells [17] = experiment: Monolayer growth inhibition, crystal violet assay; assay type: cell-based; conditions: Homo sapiens; T47D (ER/PR), 5 days, single dose on day 1
Text: as §2

4T1 cells [18] = experiment: Monolayer growth inhibition, crystal violet assay; assay type: cell-based; conditions: Mus musculus; 4T1 (TNBC), 5 days, single dose on day 1
Text: as §1

HCC1143 cells [19] = experiment: Monolayer growth inhibition, crystal violet assay; assay type: cell-based; conditions: Homo sapiens; HCC1143 (TNBC), 5 days, single dose on day 1
Text: as §1

MDA-MB-231 cells [20] = experiment: Monolayer growth inhibition, crystal violet assay; assay type: cell-based; conditions: Homo sapiens; MDA-MB-231 (TNBC), 5 days, single dose on day 1
Text: as §1

MDA-MB-435 cells [21] = experiment: Monolayer growth inhibition, crystal violet assay; assay type: cell-based; conditions: Homo sapiens; MDA-MB-435 (Melanoma), 5 days, single dose on day 1
Text: as §1

PC3 cells [22] = experiment: Monolayer growth inhibition, crystal violet assay; assay type: cell-based; conditions: Homo sapiens, PC-3; PC3 (Prostate), 5 days, single dose on day 1
Text: as §1

SUM149 cells [23] = experiment: Monolayer growth inhibition, crystal violet assay; assay type: cell-based; conditions: Homo sapiens; SUM149 (TNBC, BRCA Mutant), 5 days, single dose on day 1
Text: as §1

SUM149-PTXR cells [24] = experiment: Monolayer growth inhibition, crystal violet assay; assay type: cell-based; conditions: Homo sapiens; SUM149-PTXR (TNBC, BRCA Mutant), 5 days, single dose on day 1
Text: as §1

RSK2, sequence (P51812 whole entry): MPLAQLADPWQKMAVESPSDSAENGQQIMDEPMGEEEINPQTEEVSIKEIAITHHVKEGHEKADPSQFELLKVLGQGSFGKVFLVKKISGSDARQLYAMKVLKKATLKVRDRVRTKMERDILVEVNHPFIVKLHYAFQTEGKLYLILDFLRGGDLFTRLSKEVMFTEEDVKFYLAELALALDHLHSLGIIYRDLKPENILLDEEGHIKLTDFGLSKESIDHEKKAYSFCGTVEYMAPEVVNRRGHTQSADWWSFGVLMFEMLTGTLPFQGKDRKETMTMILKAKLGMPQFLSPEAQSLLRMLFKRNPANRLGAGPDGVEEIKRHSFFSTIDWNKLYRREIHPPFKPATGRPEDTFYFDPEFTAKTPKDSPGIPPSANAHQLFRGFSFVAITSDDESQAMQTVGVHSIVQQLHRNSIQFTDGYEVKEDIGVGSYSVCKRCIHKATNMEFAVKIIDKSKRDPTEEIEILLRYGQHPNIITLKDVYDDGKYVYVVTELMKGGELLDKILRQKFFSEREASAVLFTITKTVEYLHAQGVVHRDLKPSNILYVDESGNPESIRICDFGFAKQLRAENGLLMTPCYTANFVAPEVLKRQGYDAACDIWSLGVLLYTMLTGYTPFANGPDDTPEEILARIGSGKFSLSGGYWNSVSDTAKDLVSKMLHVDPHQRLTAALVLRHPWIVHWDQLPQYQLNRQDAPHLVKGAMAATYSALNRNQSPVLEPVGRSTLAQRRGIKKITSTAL

Compound: C[C@@H]1CNC(=O)c2cc3ccc(C(=O)Nc4cnn(Cc5ccccc5)c4)nc3n21 [Compound 0, (R)—N-(1-benzyl-1H-pyrazol-4-yl)-9-methyl-6-oxo-6,7,8,9-tetrahydropyrido[3′,2′:4,5]pyrrolo[1,2-a]pyrazine-2-carboxamide, reference compound]
- Solubility, 20 mg/ml Solution [1]: not soluble; also recorded: poor or nonexistent solubility; also recorded: Precipitate
- IC50 (MDA-MB-231 cells [2]): 0.2 µM
- IC50 (CD34+ cells; Homo sapiens, Hematopoietic stem cell, CD34+ cells from peripheral blood, read-out: CD34+ (PB) IC50): 10 µM
- Therapeutic Window (CD34+ cells; ratio IC50 against CD34+ cells and MDA-MB-231 cells (SA)): 50X

Compound: O=C(Nc1ccc2[nH]cc(CN3CCOCC3)c2c1)c1cnn(Cc2ccccc2)c1 [Compound 1, 1-Benzyl-N-(3-(morpholinomethyl)-1H-indol-5-yl)-1H-pyrazole-4-carboxamide]
- IC50 (RSK2): > 10 µM

Compound: O=C(Nc1ccc2c(CN3CCOCC3)c[nH]c2c1)c1cnn(Cc2ccccc2)c1 [Compound 2, 1-Benzyl-N-(3-(morpholinomethyl)-1H-indol-6-yl)-1H-pyrazole-4-carboxamide]
- IC50 (RSK2): > 10 µM

Compound: CN1CCN(Cc2c[nH]c3ccc(NC(=O)c4cnn(Cc5ccccc5)c4)cc23)CC1 [Compound 3, 1-Benzyl-N-(3-((4-methylpiperazin-1-yl)methyl)-1H-indol-5-yl)-1H-pyrazole-4-carboxamide]
- IC50 (RSK2): > 10 µM

Compound: CN1CCN(Cc2c[nH]c3cc(NC(=O)c4cnn(Cc5ccccc5)c4)ccc23)CC1 [Compound 4, 1-Benzyl-N-(3-((4-methylpiperazin-1-yl)methyl)-1H-indol-6-yl)-1H-pyrazole-4-carboxamide]
- IC50 (RSK2): > 10 µM

Compound: O=C(Nc1ccc2scc(CN3CCOCC3)c2c1)c1cnn(Cc2ccccc2)c1 [Compound 5, 1-Benzyl-N-(3-(morpholinomethyl)benzo[b]thiophen-5-yl)-1H-pyrazole-4-carboxamide]
- IC50 (RSK2): > 10 µM

Compound: O=C(Nc1ccc2scc(CN3CCNCC3)c2c1)c1cnn(Cc2ccccc2)c1 [Compound 6, 1-Benzyl-N-(3-(piperazin-1-ylmethyl)benzo[b]thiophen-5-yl)-1H-pyrazole-4-carboxamide]
- IC50 (RSK2): > 10 µM

Compound: O=C(Nc1ccc2c(CN3CCOCC3)coc2c1)c1cnn(Cc2ccccc2)c1 [Compound 7, 1-benzyl-N-(3-(morpholinomethyl)benzofuran-6-yl)-1H-pyrazole-4-carboxamide]
- IC50 (RSK2): > 10 µM

Compound: O=C(Nc1ccc2occ(CN3CCOCC3)c2c1)c1cnn(Cc2ccccc2)c1 [Compound 8, 1-benzyl-N-(3-(morpholinomethyl)benzofuran-5-yl)-1H-pyrazole-4-carboxamide]
- IC50 (RSK2): > 10 µM

Compound: O=C(Nc1ccc2occ(CN3CCNCC3)c2c1)c1cnn(Cc2ccccc2)c1 [Compound 9, 1-benzyl-N-(3-(piperazin-1-ylmethyl)benzofuran-5-yl)-1H-pyrazole-4-carboxamide]
- IC50 (RSK2): > 10 µM

Compound: O=C(Nc1ccc2c(CN3CCNCC3)coc2c1)c1cnn(Cc2ccccc2)c1 [Compound 10, 1-benzyl-N-(3-(piperazin-1-ylmethyl)benzofuran-6-yl)-1H-pyrazole-4-carboxamide]
- IC50 (RSK2): > 1 µM

Compound: C[C@@H]1CNC(=O)c2cc3ccc(NC(=O)c4cnn(Cc5ccccc5)c4)cc3n21 [Compound 11, (R)-1-benzyl-N-(4-methyl-1-oxo-1,2,3,4-tetrahydropyrazino[1,2-a]indol-7-yl)-1H-pyrazole-4-carboxamide]
- IC50 (4T1 cells [3]): 48.5 ± 2.6 µM
- IC50 (HCC1143 cells [4]): > 50 µM
- IC50 (HCC1937 cells [5]): > 50 µM
- IC50 (JIMT-1 cells [6]): > 50 µM
- IC50 (MDA-MB-231 cells [7]): > 50 µM
- IC50 (MDA-MB-435 cells [8]): 24.6 ± 10.3 µM
- IC50 (MDA-MB-468 cells [9]): > 50 µM
- IC50 (PC3 cells [10]): 44.9 ± 8.8 µM
- IC50 (SUM149 cells [11]): 36 ± 12.8 µM
- IC50 (SUM149-PTXR cells [12]): 36.4 ± 11.9 µM
- IC50 (T47D cells [13]): 48.1 ± 3.3 µM
- IC50 (HCC1937 cells [14]): > 50 µM
- IC50 (JIMT-1 cells [15]): > 50 µM
- IC50 (MDA-MB-468 cells [16]): 37.3 ± 2.3 µM
- IC50 (T47D cells [17]): 30.1 ± 3.3 µM
- IC50 (4T1 cells [18]): 39.5 ± 9.4 µM
- IC50 (HCC1143 cells [19]): > 50 µM
- IC50 (MDA-MB-231 cells [20]): 45 ± 8.7 µM
- IC50 (MDA-MB-435 cells [21]): 17.9 ± 7.3 µM
- IC50 (PC3 cells [22]): 45.6 ± 4.8 µM
- IC50 (SUM149 cells [23]): 33.6 ± 14.5 µM
- IC50 (SUM149-PTXR cells [24]): 44.6 ± 3.9 µM

Compound: O=C(Nc1ccc2cc3n(c2c1)CCNC3=O)c1cnn(Cc2ccccc2)c1 [Compound 12, 1-benzyl-N-(1-oxo-1,2,3,4-tetrahydropyrazino[1,2-a]indol-7-yl)-1H-pyrazole-4-carboxamide]
- IC50 (RSK2): > 1 µM

Compound: CN1CCc2oc3ccc(NC(=O)c4cnn(Cc5ccccc5)c4)cc3c2C1 [Compound 13, 1-benzyl-N-(2-methyl-1,2,3,4-tetrahydrobenzofuro[3,2-c]pyridin-8-yl)-1H-pyrazole-4-carboxamide]
- IC50 (RSK2): > 1 µM

Compound: CN1CCc2[nH]c3ccc(NC(=O)c4cnn(Cc5ccccc5)c4)cc3c2C1 [Compound 14, 1-benzyl-N-(2-methyl-2,3,4,5-tetrahydro-1H-pyrido[4,3-b]indol-8-yl)-1H-pyrazole-4-carboxamide]
- IC50 (RSK2): > 1 µM

Compound: C[C@@H]1CNC(=O)c2cc3ccc(C(=O)Nc4cnn(CC5CCN(C)CC5)c4)nc3n21 [Compound 20, (R)-9-methyl-N-(1-((1-methylpiperidin-4-yl)methyl)-1H-pyrazol-4-yl)-6-oxo-6,7,8,9-tetrahydropyrido[3′,2′:4,5]pyrrolo[1,2-a]pyrazine-2-carboxamide]
- Solubility, 20 mg/ml Solution [1]: Soluble
- pH of 20 mg/ml solution ([1]; DMSO stock diluted in DMEM, pH test strips): 8
